Test results as given in US9814714B2, “Kinase modulation, and indications therefor” (Plexxikon Inc., priority 2015, dated 2017).
Where two headings read alike, the source gives them in different places.

Legend:
[1] = tested on: pERK in IPC-298 cells (NRAS^Q61L); experiment: Phospho-ERK AlphaScreen assay, pERK activation in IPC-298; assay type: cell-based, human; conditions: for EC50: Homo sapiens
Description: Phospho-ERK AlphaScreen® assay: The degree of ERK phosphorylation was determined using an AlphaScreen® assay where an increase in ERK1/2 phosphorylation at Thr202/Tyr204 brought the donor and acceptor AlphaScreen® beads into close proximity, generating a signal for quantification. To determine the effects of compound treatment on phosphorylation of ERK1/2, cells were plated in a 96-well plate and treated with an 8-point titration of compound for one hour at 37° C. before lysis. To detect pERK, cell lysates were incubated with streptavidin-coated AlphaScreen® donor beads, anti-mouse IgG AlphaScreen® acceptor beads, a biotinylated anti-ERK1/2 rabbit antibody, and a mouse antibody that recognizes ERK1/2 only when it is phosphorylated on Thr202 and Tyr204. The biotinylated ERK1/2 antibody binds to both the streptavidin-coated AlphaScreen® donor beads and to ERK1/2 (regardless of its phosphorylation state), and the phospho-ERK1/2 antibody binds to the acceptor beads and to ERK1/2 that is phosphorylated at Thr202/Tyr204. An increase in ERK1/2 phosphorylation at Thr202/Tyr204 brings the donor and acceptor AlphaScreen® beads into close proximity, generating a signal that can be quantified on an EnVision reader (Perkin Elmer).
Using AlphaScreen® technology, the ability of Formula I to affect the phosphorylation of ERK and MEK in the cells was measured quantitatively. Following treatment with compound, the cells were lysed, and a sample of the lysate was transferred to an assay plate. The lysate was mixed with antibodies directed against total ERK/MEK, antibodies that recognize specific phosphorylation sites on ERK/MEK, AlphaScreen® anti-mouse IgG Acceptor beads, and Streptavidin Donor beads. Upon excitation of the donor beads with laser light at 680 nm, singlet oxygen was produced. This singlet oxygen was rapidly quenched, unless the AlphaScreen® Acceptor beads were in close proximity, in which case a proximity signal can be measured at 580 nm. In the presence of phosphorylated ERK/MEK, there is a very strong proximity signal.
1. One day before the assay, 50,000 cells were plated in each well of a 96-well tissue-culture-treated plate (Corning #3610) in a 50 μL volume. Cells were incubated at 37° C. overnight.
2. Compounds were diluted in DMSO to 500× final concentration. Each compound was plated as an 8-point titration, using 1:3 dilutions in DMSO. The maximum concentration was about 5 mM.
3. 1 μl of compound was added to each well of a 96-well polypropylene plate (Corning #3363). For A375, COLO829, SK-MEL-3, HCT116, and HT-29, the high control was DMSO, and the low control was 10 μM PLX4720 (CAS No. 918505-84-7). For B9 and IPC-298, the high control was 3.33 μM PLX4720, and the low control was DMSO. 4. 249 μL growth media was added to compounds, diluting them 250-fold. 5. […] The compound was incubated with the cells at 37° C. for one hour. 6. The media was aspirated, and the cells were lysed in 50 μL of ice-cold 1× Cell Lysis buffer. The plates were incubated on ice for 5 minutes to allow complete lysis of the cells. 7. A mixture of biotinylated donor antibody, acceptor antibody, and anti-mouse IgG AlphaScreen® acceptor beads in 1× AlphaLISA immunoassay buffer was prepared. 8. 5 μL of lysate was transferred to a 384-well assay plate (Perkin Elmer #6005359). 5 μL of the antibody and acceptor bead mixture was added. The plates were spinned.

COLO205 cells = experiment: Growth inhibition assay (CellTiter-Glo), COLO205; assay type: cell-based; conditions: Homo sapiens
Description: Cells were incubated overnight at 37° C.
2. […] The maximum concentration was about 5 mM.

A375 cells = experiment: Growth inhibition assay (CellTiter-Glo), A375; assay type: cell-based; conditions: Homo sapiens
Description: Growth inhibition assay: Cells were plated into a 96-well plate at a density of 3000 cells per well and allowed to adhere overnight. Compounds were dissolved in DMSO, diluted 3-fold to create an 8-point titration and added to cells. After a 72-hour incubation, cell viability was examined using CellTiter-Glo® (Promega).
In order to determine the effects of Formula I on proliferation, a growth assay was established using melanoma cells (A375 and COLO829) and colorectal carcinoma cells (COLO205, HT-29) which each express the BRAFV600E mutation. To show selectivity over wild-type BRAF, several BRAF wild-type cell lines (K562, NOMO-1, MV-4-11 and ML-2) were also examined in the growth assay. The growth assay implemented the Promega CellTiter-Glo Luminescent Cell viability assay, which gives a luminescent readout that is proportional to the amount of ATP present in a cell sample. As ATP levels directly correlate with the number of viable cells, the luminescent signal can be used to determine the potency of Formula I to block the proliferation of the cell lines of interest.
1. 3,000 cells were plated in each well for cell lines A375, COLO205, COLO829, HT-29, and SK-MEL-3. 25,000 cells were plated in each well for cell lines K562, ML-2, MV-4-11, and
NOMO-1 of a 96-well tissue-culture-treated plate (Corning #3610) in a 50 μL volume. Cells were incubated overnight at 37° C.
2. Each test compound was plated as an 8-point titration, using 1:3 dilutions in DMSO. The maximum concentration was about 5 mM. Dilute DMSO and test compound of Formula I 1:250 in growth media.
3. 50 μL of the diluted compound was transferred into 50 μL cells, for a 500-fold final compound dilution (maximum concentration is typically 10 μM and DMSO concentration is 0.2%). The cells were incubated with DMSO/compound for 3 days at 37° C. in 5% CO2.
4. Cell Titer-Glo Luminescent Assay Reagent was brought to room temperature and reconstituted as directed in the product manual. The cell cultures were also brought to room temperature for about 20-30 minutes. […] Luminescence was measured on a Tecan Safire plate reader. […]

[2] = IPC-298, read-out: pERK activation Mean EC50, IPC-298
[3] = IPC-298, NRAS^Q61L, concentration increasing pERK to 50% compared to positive control 10 μM PLX4720, read-out: pERK activation EC50 IPC298
[4] = COLO 205, 72-hour incubation, read-out: In vitro growth inhibition IC50, COLO205
[5] = A-375, 72-hour incubation, read-out: In vitro growth inhibition IC50, A375

SMILES	EC50 [1, 2] [nM]	EC50 [1, 3] [nM]	IC50 (COLO205 cells; COLO 205, 72 h, Table 4, colorectal adenocarcinoma, BRAF V600E/WT, RAS WT, 3 days, read-out: Growth IC50 Colo205) [nM]	IC50 (A375 cells; A-375, 72 h, Table 4, melanoma, BRAF V600E, RAS WT, 3 days, read-out: Growth IC50 A375) [nM]	MAPK signaling / pERK increase in IPC-298 (in words) ([1]; FIG. 1(B), NRAS^Q61L)	IC50 (COLO205 cells; [4]) [nM]	IC50 (A375 cells; [5]) [nM]
O=C(c1c(F)ccc(NS(=O)(=O)N2CC[C@@H](F)C2)c1F)c1c[nH]c2ncc(-c3cnc(C4CC4)nc3)cc12 [Formula I, (3R)—N-[3-[5-(2-cyclopropylpyrimidin-5-yl)-1H-pyrrolo[2,3-b]pyridine-3-carbonyl]-2,4-difluorophenyl]-3-fluoropyrrolidine-1-sulfonamide]	10000	> 200000	10	50	–	–	–
CCN(C)S(=O)(=O)Nc1ccc(F)c(C(=O)c2c[nH]c3ncc(-c4cnc(C5CC5)nc4)cc23)c1F [Formula II, 5-(2-cyclopropylpyrimidin-5-yl)-3-[3-[[ethyl(methyl)sulfamoyl]amino]-2,6-difluoro-benzoyl]-1H-pyrrolo[2,3-b]pyridine]	–	> 200000	–	–	negligible pERK increase	160	170
CCCS(=O)(=O)Nc1ccc(F)c(C(=O)c2c[nH]c3ncc(-c4ccc(Cl)cc4)cc23)c1F [Vemurafenib, vemurafenib, reference compound]	840	540	–	–	–	250	330
